Results as given in patent publication US7582786B2, “Synthetic catalytic free radical scavengers useful as antioxidants for prevention and therapy of disease” (Eukarion Inc., priority 1996, dated 2009).

Key:
[1] = Catalase activity, decomposition of hydrogen peroxide monitored at 240 nm (Example 1); type: biochemical; conditions: Example 1, H2O2 decomposition at 240 nm
Experimental: Catalase activity was measured using a spectrophotometric method in which the decomposition of hydrogen peroxide is monitored at 240 nm according to the method of Aebi et al. (1984) Methods Enzymol. 105: 121, incorporated herein by reference. One unit of catalase activity is defined as the amount of enzyme (or salen-metal complex) required to decompose 1 μmole of hydrogen peroxide in one minute.

[2] = SOD activity, inhibition of cytochrome C reduction by xanthine plus xanthine oxidase (Example 1); type: biochemical; conditions: Example 1, cytochrome C reduction
Experimental: The SOD activity of the compounds was determined by evaluating the inhibition of the reduction of cytochrome C produced by the oxygen free radical generating system, xanthine plus xanthine oxidase. Cytochrome C reduction is monitored spectrophotometrically at 550 nm according to the method described in Darr et al. (1987) Arch. Biochem. Biophys. 258: 351, incorporated herein by reference. The concentration of xanthine oxidase is adjusted such that it produces a rate of reduction of cytochrome C at 550 nm of 0.025 absorbance unit per minute. Under these conditions, the amount of SOD activity required to inhibit the rate of cytochrome C reduction by 50 percent (i.e., to a rate of 0.0125 absorbance unit per minute) is defined as one unit of activity. Salen-metal complexes are identified as antioxidants if they have at least 0.1 unit of activity at a concentration of 1 mM under these standard assay conditions.

brain homogenates = assay: Iron-induced lipid peroxidation in brain homogenates (MDA); type: biochemical, rat
Experimental: Lipid peroxidation was induced by incubating a mixture consisting of 0.25 ml homogenate, 0.25 ml ASCF with test compounds, and 10 μM FeCl2 for 1 hr at 35° C. under an atmosphere equilibrated with O2:CO2(95:5). Following the incubation, 0.1 ml of the sample was extracted with trichloroacetic acid and analyzed for thiobarbituric acid reactive material as described previously, using authentic malonyldialdehyde (MDA) as a standard.

[3] = Peroxidase activity, H2O2-dependent oxidation of ABTS (Example 2); type: biochemical; conditions: for Peroxidase rate: 10 μM salen manganese complex, 0.2 mM H2O2; for Peroxidase: relative to C7 (C7 = 100)
Outline: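 ABTS oxidation by salen manganese complex (10 μM) with 0.2 mM H2O2 in 50 mM sodium phosphate pH 8.1 (or pH 6.0/7.1 where indicated), 0.9% NaCl, 0.5 mM ABTS, 27±0.2 °C. Oxidized ABTS read spectrophotometrically at 740 or 500 nm and quantified from Δε740 20,300 or Δε500 3400 M^−1cm^−1.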

[4] = SOD activity, xanthine/xanthine oxidase with cytochrome C as acceptor (Example 2); type: biochemical; conditions: relative to C7 (C7 = 100)
Outline: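 Superoxide was generated by 120 µM xanthine and 0.2 U/ml xanthine oxidase in 50 mM sodium phosphate pH 7.8 at 27 °C, with salen manganese compounds at ≥4 concentrations in duplicate.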

[5] = Peroxidase activity with t-BHP as substrate, ABTS oxidation; type: biochemical
Experimental: Peroxidase activity was assayed by monitoring the hydrogen peroxide-dependent oxidation of 2,2′-azino-bis(3-ethylbenzthiazoline-6) sulfonic acid (ABTS) spectrophotometrically. Standard assay mixtures consisted of 50 mM sodium phosphate, pH 8.1, 0.9% sodium chloride, 0.5 mM ABTS, and H2O2 and salen manganese complex as indicated. Where indicated, 50 mM sodium phosphate buffers of pH 6.0 or pH 7.1 were substituted. Assays were conducted at 27±0.2° C. ABTS oxidation was monitored at 740 or 500 nm to eliminate interference by the salen manganese complexes, many of which absorb in the vicinity of the λmax of oxidized ABTS, and to avoid absorbance values that exceeded the linear range of the spectrophotometer. The amount of oxidized ABTS was estimated using an Δε740 of 20,300 M^−1cm^−1 or an Δε500 of 3400 M^−1cm^−1 calculated based upon the published molar extinction coefficient oat 405 nm (36,800).
(In comparison, horseradish peroxidase utilized t-BHP with an ABTS oxidation rate that was about 5.4% of the rate with H2O2).

[6] = Catalase activity, conversion of H2O2 to oxygen, polarographic oxygen electrode (Example 2); type: biochemical
Outline: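 Clark-type oxygen electrode at 25 °C in 50 mM sodium phosphate pH 8.1, 0.9% NaCl, with 10 μM salen-manganese complex and 10 mM H2O2. Initial rates from slope of first ~5 s, corrected for H2O2-alone rate; endpoint O2 as maximal minus pre-substrate baseline.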

[7] = system: Human dermal fibroblasts (HF cells); assay: Cell protection assay, glucose/glucose oxidase toxicity, XTT; type: cell-based
Experimental: (§1) Human dermal fibroblasts (HF cells) were obtained from the American type tissue Culture Collection at passage 1 and cultured and propagated in a medium (HF medium) consisting of Dulbecco's Modified Eagle's Medium with 4.5 g/l D-glucose, 10% calf serum 4 mM glutamine, 50 units/ml penicillin, and 50 μg/ml streptomycin in a 37° C. humidified incubator equilibrated with 5% CO2. Cells were used at passages 5 or 6 for experiments. For cell protection assays, HF cells were seeded at a density of about 15,000 cells per cm2 onto 96-well culture plates and allowed to grow to confluence. To assess protection tert-butylhydroperoxide (t-BHP) toxicity, confluent cell layers were first treated with the indicated concentrations of test compounds dissolved in HF medium for 18 hr. The medium was then replaced with fresh medium containing test compounds and 0.5 mM tert-butylhydroperoxide (t-BHP) and cells were incubated for another 18 hr. The medium was then removed and replaced with fresh HF medium (100 μl per well) without test compounds or t-BHP. Fifty μl of XTT reagent (Boeringer Mannheim, Inc.), prepared as described by the manufacturer, was then added to each well and the plates returned to the incubator. After 2 hr., the absorbance at 490 nm was measured in a BioRad (Richmond, Calif.) Model 3550 plate-reader, using a reference wavelength of 655 nm. Control cells that had not been exposed to test compounds or toxic agents were included among the samples treated with XTT reagent. Absorbance measurements for blank wells, containing HF medium and XTT reagent but no cells, were also determined. To analyze protection from glucose/glucose oxidase toxicity, confluent cell layers were incubated with HF medium containing glucose oxidase (0.019 units/ml) along with test compounds, as indicated, for 18 hr in the tissue culture incubator. Fresh HF medium was then added and cell viability assessed using the XTT reagent as described above. For both these models, concentrations of toxic agents were selected that were reproducibly completely lethal. Cytotoxicity assessments were routinely confirmed by visual inspection of the cell layers prior to addition of the XTT reagent.
Catalase and peroxidase activities were assayed as described in Example 2. Catalase assays contained 10 μM salen-manganese complex and 10 mM hydrogen peroxide. Peroxidase assays contained 10 μM salen-manganese complex and 0.2 mM hydrogen peroxide. Glucose-glucose oxidase toxicity assays were performed using human dermal fibroblasts as described in Example 2.

[8] = system: Human dermal fibroblasts (HF cells); assay: Cell protection assay, tert-butylhydroperoxide (t-BHP) toxicity, XTT; type: cell-based; conditions: for Cell viability, absorbance at 490 nm uncorrected for blank: t-BHP 0.5 mM
Experimental: as §1

brain microsomes = assay: Lipid peroxidation induced in brain microsomes by iron and ascorbate (MDA)
Text: A series of salen-metal complexes were synthesized and their catalytic activities determined. […] FIGS. 24A-24H show structural formulae of further salen-metal compounds which were synthesized and evaluated.

[9] = 10 μM salen manganese complex, 10 mM H2O2

Row | Catalase Activity [1] [units/mM] | SOD Activity [2] [units/mM] | Compound | MDA levels, percent of control (brain homogenates; 1 μM) [%] | MDA levels, percent of control (brain homogenates; 5 μM) [%] | MDA levels, percent of control (brain homogenates; 10 μM) [%] | MDA levels, percent of control (brain homogenates; 25 μM) [%] | Peroxidase rate [3] [μM ABTS oxidized/min] | Peroxidase [3] | SOD [4] | peroxidase rate with t-BHP relative to C32 [5] | Catalase rate [6, 9] [μM O2/min] | Endpoint [6, 9] [maximal μM O2] | Catalase endpt. ([6]; relative to C7 (C7 = 100)) | Catalase rate ([6]; relative to C7 (C7 = 100)) | protection against glucose and glucose oxidase (in words) [7] | Cell viability, absorbance at 490 nm uncorrected for blank ([8]; 2.5 μM) | Cell viability, absorbance at 490 nm uncorrected for blank ([8]; 5 μM) | Cell viability, absorbance at 490 nm uncorrected for blank ([8]; 10 μM) | Cell viability, absorbance at 490 nm uncorrected for blank ([8]; 20 μM) | Cell viability, absorbance at 490 nm uncorrected for blank ([8]; 40 μM) | further results
1 | 46 | 101 | CC(C)(C)c1cc(Cl)cc2c1[O][Mn]([Cl])[O]c1c(cc(Cl)cc1C(C)(C)C)C=NC1CCCCC1N=C2 (centres unmarked) [Compound C11] |  |  |  |  |  |  |  |  |  |  |  |  |  |  |  |  |  |  | 
2 | 144 | 4397 | COc1cc2c(c(C(C)(C)C)c1)[O][Mn]([Cl])[O]c1c(cc(OC)cc1C(C)(C)C)C=NC1CCCCC1N=C2 (centres unmarked) [Compound C12] |  |  |  |  |  |  |  |  |  |  |  |  |  |  |  |  |  |  | 

Second part, the compound before the results:

Row | Compound | Catalase Activity [1] [units/mM] | SOD Activity [2] [units/mM] | MDA levels, percent of control (brain homogenates; 1 μM) [%] | MDA levels, percent of control (brain homogenates; 5 μM) [%] | MDA levels, percent of control (brain homogenates; 10 μM) [%] | MDA levels, percent of control (brain homogenates; 25 μM) [%] | Peroxidase rate [3] [μM ABTS oxidized/min] | Peroxidase [3] | SOD [4] | peroxidase rate with t-BHP relative to C32 [5] | Catalase rate [6, 9] [μM O2/min] | Endpoint [6, 9] [maximal μM O2] | Catalase endpt. ([6]; relative to C7 (C7 = 100)) | Catalase rate ([6]; relative to C7 (C7 = 100)) | protection against glucose and glucose oxidase (in words) [7] | Cell viability, absorbance at 490 nm uncorrected for blank ([8]; 2.5 μM) | Cell viability, absorbance at 490 nm uncorrected for blank ([8]; 5 μM) | Cell viability, absorbance at 490 nm uncorrected for blank ([8]; 10 μM) | Cell viability, absorbance at 490 nm uncorrected for blank ([8]; 20 μM) | Cell viability, absorbance at 490 nm uncorrected for blank ([8]; 40 μM) | further results
3 | CC(C)(C)c1cc2c(c(C(C)(C)C)c1)[O][Mn]([Cl])[O]c1c(cc(C(C)(C)C)cc1C(C)(C)C)C=NC1CCCCC1N=C2 (centres unmarked) [Compound C10] | 179 | 69 |  |  |  |  |  |  |  |  |  |  |  |  |  |  |  |  |  |  | 
4 | CC(=O)[O][Mn]1[O]c2c(F)cccc2C=NCCN=Cc2cccc(F)c2[O]1 [Compound C36] |  |  | 95 | 37 | 16 | 4 | 22.2 ± 0.8 | 129 | 104 | about twice as fast as C32 | 167.5 ± 9.8 | 27.9 ± 2.3 | 104 | 128 | about equally as effective as C7 | 0.28 ± 0.01 | 0.29 ± 0.01 | 1.13 ± 0.05 | 1.44 ± 0.04 | 1.28 ± 0.45 | synergistic toxicity with t-BHP ([8]; 80 μM): possible synergistic toxicity; Cell viability, absorbance at 490 nm uncorrected for blank ([8]; 80 μM): 0.79 ± 0.34
5 | Fc1cccc2c1[O][Mn]([Cl])[O]c1c(F)cccc1C=NCCN=C2 [Compound C37] |  |  | 94 | 43 | 25 | 8 | 23.3 ± 0.6 | 92 | 115 | about twice as fast as C32 | 182.6 ± 26.8 | 28.3 ± 0.5 | 104 | 117 | about equally as effective as C7 | 0.28 ± 0.01 | 0.28 ± 0.01 | 1.20 ± 0.06 | 1.42 ± 0.05 | 1.53 ± 0.02 | synergistic toxicity with t-BHP ([8]; 80 μM): possible synergistic toxicity; Cell viability, absorbance at 490 nm uncorrected for blank ([8]; 80 μM): 1.20 ± 0.02
6 | Vitamin E |  |  |  |  |  |  |  |  |  |  |  |  |  |  |  |  |  |  |  |  | inhibition of lipid peroxidation in brain microsomes (brain microsomes): inhibition of lipid peroxidation
